Test results published in PubChem BioAssay AID2252 (Southern Research Specialized Biocontainment Screening …, 2010).

Tested on: THP-1 viability, CellTiter-Glo luminescence, 72 h
Assay: PubChem AID 2252

CCCCCCCCCCC[N+](C)(C)CC/C=C1/c2ccccc2Sc2ccc(Cl)cc21
EC50: 2.58 µM

CN1CCN(C(c2ccc(Br)cc2)c2cc(Cl)c3cccnc3c2O)CC1 (configuration not stated)
EC50: 2 µM

CCn1cc(C(=O)O)c(=O)c2cc(F)c(N3CCN(C(=S)NC(=O)c4cccc(C)c4)CC3)cc21
EC50: < 0.1 µM

CCN(CCC(=O)Nc1ccc(Br)c(C)c1)Cc1ccccc1
EC50: 13.8 µM

O=C(Nc1nnc(C2COc3ccccc3O2)o1)c1ccc(F)cc1 (configuration not stated)
EC50: 16.8 µM

O=C(CCN1CCN(C(=O)c2ccccc2)CC1)c1ccc(Br)cc1
EC50: 40.5 µM

CCCCCCCCCCOC(=O)Cn1c(COc2ccc(Cl)cc2)[n+](C)c2ccccc21
EC50: 1.92 µM

OCCNCc1cc(Br)ccc1OCc1ccc(Cl)cc1
EC50: 15.9 µM

CC1=C([N+](=O)[O-])C(c2ccccc2)C2=C(N1)c1ccccc1C2=O (configuration not stated)
EC50: 1.01 µM

Cc1c(C(=O)Nc2ccncc2)sc2nc(-c3ccc(F)cc3)cn12
EC50: 19.6 µM

OC(CNCc1ccco1)Cn1c2ccc(Br)cc2c2cc(Br)ccc21 (configuration not stated)
EC50: 9.67 µM

COC(=O)CC1C(=O)NCCN1C(=O)CSc1nc2ccc([N+](=O)[O-])cc2s1 (configuration not stated)
EC50: < 0.1 µM

Fc1cccc(Nc2c3c(nc4ccccc24)CCC3)c1
EC50: 26.3 µM

CCN1CCN(CCCNC(=O)c2ccc(/C=C3/Sc4ccccc4N(Cc4ccccc4F)C3=O)cc2)CC1
EC50: 11.2 µM

O=C(N/N=C/c1ccc([N+](=O)[O-])s1)C(O)c1ccccc1 (configuration not stated)
EC50: 12.9 µM

CCOC(=O)c1c(C)[nH]c(C(=O)CN2C(=O)NC(C)(c3ccc4ccccc4c3)C2=O)c1C (configuration not stated)
EC50: 39.1 µM

COc1cccc(/C=N/NC(=O)CNC(=O)CCc2ccccc2)c1O
EC50: 21.7 µM

CCN(CC)c1cc(C)c2cc(NC(=O)c3ccccc3F)ccc2n1
EC50: 8.98 µM

Cc1cccc(NC2=NC3(CCCCC3)N=C(N)N2)c1
EC50: 34.2 µM

CCCCOc1ccc(NC2=NC3(CCCC3)N=C(N)N2)cc1
EC50: 17.4 µM

C=CCN(c1ccccc1)S(=O)(=O)c1cccc2cccnc12
EC50: 49.4 µM

CCOc1ccc(Nc2nc(N)c3ccccc3n2)cc1
EC50: 6.96 µM

Oc1ccc(CN2CCN(c3ccccc3)CC2)c2cccnc12
EC50: 5.88 µM

Oc1c(Br)cc(Br)cc1C=Nc1cccc2ncccc12
EC50: 12.9 µM

COc1ccc(OCC(=O)Nc2ccc3c(c2)nc(CCN2CCC(C)CC2)n3C)cc1
EC50: 35.1 µM

Cc1ccc(C(=O)NNC(=S)NC(=O)c2ccccc2)cc1
EC50: 8.09 µM

CCCCOc1ccc(C(=O)OC2CC(C)N(C)CC2C)cc1 (configuration not stated)
EC50: 30.7 µM

O=C(Nc1ccc(Cl)cc1)Nc1ccc2c(c1)N1CCN=C1S2
EC50: 13.9 µM

ON=C1/C(=N\O)CC2(C/C1=N/O)OCCO2
EC50: 33.2 µM

OC(CNCCc1ccccc1)COc1ccc(OCC(O)CNCCc2ccccc2)cc1 (configuration not stated)
EC50: 7.35 µM

CCCCCOc1ccc(CSC(=N)N)cc1[N+](=O)[O-]
EC50: 14 µM

CN(Cc1ccccc1)CC(O)COc1ccc(CNCc2ccc(Cl)s2)cc1 (configuration not stated)
EC50: 22.2 µM

O=C(Nc1ccc(-c2nc3ccccc3[nH]2)cc1)c1ccco1
EC50: 10.6 µM

Nc1nc2ccccc2n1Cc1ccc(Cl)c(Cl)c1
EC50: 31.6 µM

c1cc2c(cc1C1CCCCC1)c1c3n2CCCNC3CCC1 (configuration not stated)
EC50: 5.18 µM

O=C(CCl)Nc1nccs1
EC50: 14.4 µM

O=C(N/N=C/c1ccccc1O)C1SCCCS1
EC50: 26.1 µM

COc1ccc(C(=O)N/N=C/c2sc3ccccc3c2O)cc1
EC50: 3.36 µM

O=C(NCc1ccco1)C1CCN(C(=O)c2cc3sccc3n2Cc2ccc(Cl)cc2)CC1
EC50: 27.8 µM

C/C(=N\NC(=O)c1ccc(Cl)cc1)c1ccccn1
EC50: 0.97 µM

CCc1nnc(NS(=O)(=O)c2ccc(N=Cc3c(C)[nH]n(-c4ccc(C)cc4)c3=O)cc2)s1
EC50: 29.3 µM

Cn1c(-c2ccc3c(c2)OCO3)cnc1NCc1ccc(Cl)cc1
EC50: 28.8 µM

CN(C)CCCn1c(SCC(=O)N2c3ccccc3Sc3ccccc32)nc2ccccc2c1=O
EC50: 14.2 µM

CC(=O)c1c(C)nc(-c2cccc([N+](=O)[O-])c2)n1O
EC50: < 0.1 µM

O=C(/C=C/c1ccc(Cl)cc1)NCCCn1ccnc1
EC50: < 0.1 µM

CC(=O)NC(c1cccs1)c1cc([N+](=O)[O-])c2cccnc2c1O (configuration not stated)
EC50: 10.5 µM

c1ccc2c(c1)C(=NC1CCCCC1)NC2=NC1CCCCC1
EC50: 4.25 µM

Cc1cc(C)c(NC(=O)C[N+](C)(C)CC(O)COc2cccc3ccccc23)c(C)c1 (configuration not stated)
EC50: 12.8 µM

O=C(N/N=C/c1cc([N+](=O)[O-])ccc1O)C1CC1
EC50: 27.7 µM

CN1CC=C(/C=C/c2ccc(-c3ccccc3)cc2)CC1
EC50: 10.5 µM

C#CCOCCOCCOCCNc1nc(N2CCN(C(=O)CCCCCCCCCCNC(=O)[C@H](CCCCN)n3cc(C)nn3)CC2)nc(N2CCN(C(=O)CCCCCCCCCCNC(=O)[C@H](CO)n3cc(CCCSC)nn3)CC2)n1
EC50: 10.4 µM

CCCCCCCCCCCCCCCC[N+](C)(C)C
EC50: 1.43 µM

CC(=O)NNC(=S)NC(=O)c1ccccc1
EC50: 44.8 µM

CCCCCCCCCCOC(=O)Cn1c(COc2ccccc2OC)[n+](C)c2ccccc21
EC50: 1.64 µM

COc1ccc(C(C[N+](=O)[O-])C2(c3ccc(OC)c(OC)c3)C(=O)c3ccccc3C2=O)cc1 (configuration not stated)
EC50: 9.85 µM

O=C(N/N=C/c1cc(Cl)ccc1O)c1ccncc1
EC50: 6.13 µM

C#CCOCCOCCOCCNc1nc(N2CCN(C(=O)CCCCCCCCCCNC(=O)[C@@H](CCSC)n3cc(CCO)nn3)CC2)nc(N2CCN(C(=O)CCCCCCCCCCNC(=O)[C@H]([C@@H](C)CC)n3cc(CCCCN=C(N)N)nn3)CC2)n1
EC50: 9.78 µM
